Assay [1] has as its target T1, PC-12 bradykinin receptors (Rattus norvegicus, UniProt P25023).
T1 construct: functional APPs secretion
T1 sequence (P25023 1-396): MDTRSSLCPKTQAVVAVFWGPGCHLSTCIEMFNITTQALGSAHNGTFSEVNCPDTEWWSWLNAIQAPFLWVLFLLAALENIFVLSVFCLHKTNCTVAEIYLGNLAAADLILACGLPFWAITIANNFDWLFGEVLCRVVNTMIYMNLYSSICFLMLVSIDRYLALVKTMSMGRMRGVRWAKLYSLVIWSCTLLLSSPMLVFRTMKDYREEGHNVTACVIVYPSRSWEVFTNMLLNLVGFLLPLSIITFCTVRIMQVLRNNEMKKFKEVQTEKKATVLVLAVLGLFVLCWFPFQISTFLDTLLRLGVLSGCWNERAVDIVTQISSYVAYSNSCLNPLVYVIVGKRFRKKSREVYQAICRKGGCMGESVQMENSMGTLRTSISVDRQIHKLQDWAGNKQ
The assay is described as follows: Secretion of soluble APP (APPs) by PC-12 cells via bradykinin receptors. The format is cell-based. The method, then:
PC-12 cell lines were obtained from American Type Culture Collection (CRL 1721) and grown in Dulbecco's modified Eagle's medium supplemented with 10% horse serum and 2.5% fetal bovine serum at 37° C. under a 5% carbon dioxide atmosphere. Cells were plated on collagen-coated culture dishes. For differentiation into the neuronal phenotype, 50 ng/ml nerve growth factor was added 24 hours after plating and differentiation was verified after three days by neurite outgrowth. Experiments were conducted with subconfluent monolayers approximately five days after plating.
Media were removed from culture dishes; cells were washed twice with serum-free N2 medium and experiments were done at 37° C. on a hot plate in serum-free N2 medium. Media were removed after incubation periods, desalted on sephadex G-25 columns with water as eluent, lyophilized and resuspended in 100 μl sample butter, and boiled for five minutes. Experiments were carried out in triplicate culture dishes and were repeated three to six times.
Cells were treated with 10 μM bradykinin or with vehicle (control) and secretion of APP was assessed over time, using Western blot and densitometry. […] Membranes were blocked, and probed with monoclonal antibody 22C11. Membranes were washed, and incubated with anti-mouse IgG conjugated to horseradish peroxidase. Bands were visualized with enhanced chemiluminescence using pre-flashed (linear) x-ray films. For densitometric analysis, bands were scanned with a Pharmacia LKB UltroScan XL laser densitometer set at 40 μm vertical interval size and […] horizontal slit width. Data were normalized to vehicle-treated controls which were always run within the same blots.

The target of another assay is T2, human m3 mAChR (Homo sapiens, UniProt P20309).
T2 construct: expressed in transfected cells; m3 200,000 receptors per cell
The format is cell-based.

For the next assay, the target named is T3, human m1 mAChR (Homo sapiens, UniProt P11229).
T3 sequence (P11229 1-460): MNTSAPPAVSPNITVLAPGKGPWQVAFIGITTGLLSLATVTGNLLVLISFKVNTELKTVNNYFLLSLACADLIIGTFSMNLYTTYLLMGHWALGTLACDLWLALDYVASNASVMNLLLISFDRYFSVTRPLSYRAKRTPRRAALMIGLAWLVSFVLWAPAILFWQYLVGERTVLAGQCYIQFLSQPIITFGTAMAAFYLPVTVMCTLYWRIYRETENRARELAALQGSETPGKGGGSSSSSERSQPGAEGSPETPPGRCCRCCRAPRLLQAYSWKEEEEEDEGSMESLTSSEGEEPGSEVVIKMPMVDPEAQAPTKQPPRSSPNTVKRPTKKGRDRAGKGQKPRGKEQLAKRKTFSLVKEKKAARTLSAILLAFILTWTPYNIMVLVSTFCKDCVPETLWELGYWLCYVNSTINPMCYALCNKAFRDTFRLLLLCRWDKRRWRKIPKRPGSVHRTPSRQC

Assay [2] has as its system serotonin receptor subtype 5HT2. The assay is described as follows: APP derivative release by 3T3 fibroblasts transfected with serotonin receptor subtype 5HT2. The conditions noted are these: 3T3 fibroblasts transfected with 5HT2; serum-deprived 24 hours. It counts as cell-based.
For another assay, the system named is human m4 mAChR. The assay is described as follows: APP release by human 293 cells transfected with m4 mAChR. The format is cell-based. The conditions noted are these: carbachol.
The subject of another assay is human m2 mAChR. Put plainly: APP release by human 293 cells transfected with m2 mAChR. It counts as cell-based. The conditions noted are these: carbachol.
The test system of the next assay is wild-type 293 cells. Put plainly: APP release by wild-type (nontransfected) human 293 cells. The format is cell-based. The settings on record: wild-type cell lines; carbachol.
In assay [3] the test system is mAChR-transfected 293 cell lines. Put plainly: APP processing in mAChR-transfected 293 cell lines, subtype not stated (Western blot). It counts as cell-based, human. On the technique in general: Immunoblotting shows a protein as a band on a membrane.
Setting [4] is: stimulation with carbachol, Western blot.

Ends that are not written are not given here.

T2 sequence (P20309 whole entry): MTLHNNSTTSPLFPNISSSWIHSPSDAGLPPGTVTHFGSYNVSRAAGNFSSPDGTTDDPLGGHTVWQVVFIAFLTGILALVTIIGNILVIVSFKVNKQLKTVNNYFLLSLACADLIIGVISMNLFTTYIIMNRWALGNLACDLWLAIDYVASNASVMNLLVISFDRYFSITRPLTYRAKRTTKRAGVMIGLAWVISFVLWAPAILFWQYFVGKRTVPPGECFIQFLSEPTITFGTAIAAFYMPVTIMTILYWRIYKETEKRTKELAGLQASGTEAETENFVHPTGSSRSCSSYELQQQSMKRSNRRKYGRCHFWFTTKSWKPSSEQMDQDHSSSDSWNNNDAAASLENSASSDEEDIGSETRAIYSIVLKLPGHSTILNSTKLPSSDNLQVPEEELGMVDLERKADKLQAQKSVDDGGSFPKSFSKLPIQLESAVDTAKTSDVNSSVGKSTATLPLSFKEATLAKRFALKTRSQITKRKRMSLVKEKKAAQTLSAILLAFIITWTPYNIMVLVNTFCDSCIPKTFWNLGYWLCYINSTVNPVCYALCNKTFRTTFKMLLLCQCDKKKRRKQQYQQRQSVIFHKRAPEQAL

For the compound RPPGFSPFR [bradykinin], the “secretion of soluble N-terminal APP derivatives (APPS) into the medium” value in assay [1] (NGF-differentiated PC-12 cells, 10 μM bradykinin vs vehicle) is recorded as “increases”. Also, in assay [1] (PC-12 cells without nerve growth factor), the “APPs secretion in undifferentiated PC-12 cells” value was “stimulates”.

Take `CN[C@@H]1C[C@H]2O[C@@](C)([C@@H]1OC)n1c3ccccc3c3c4c(c5c6ccccc6n2c5c31)C(=O)NC4` [staurosporine]: the “effect on receptor-activated (carbachol-induced) APP release” value on human m3 mAChR and on human m1 mAChR was “inhibited” in each case. Moreover, in assay [1] (PC-12 cells, added with bradykinin), the “effect on bradykinin-induced APPS secretion” value was “inhibited”.

With `NCCc1c[nH]c2ccc(O)cc12` [Serotonin], the “release of N-terminal non-amyloidogenic APP derivatives” value in assay [2] is recorded as “increases release”.

Turning to `C[N+](C)(C)CCOC(N)=O` [carbachol], the “basal release of APP fragments, effect of agonist” value (from here on “basal release of APP fragments”) in the assay with human m4 mAChR is reported as “not stimulated”. Further, the “basal release of APP fragments” value in the assay with human m2 mAChR is on record as “not stimulated”. For the same compound, in the assay with wild-type 293 cells, the “basal release of APP fragments” value was “not stimulated”. In assay [3] (setting [4]), the “128 kD APP derivative secreted into the culture medium” value is “increase”, the “abundance of cell-associated 115 kD APP” value is “remained unaffected” and the “abundance of cell-associated 141 kD APP” value is “decreased”.

In the case of `CNc1ccc2oc(C[C@H]3O[C@@]4(CC[C@H]3C)O[C@H]([C@H](C)C(=O)c3ccc[nH]3)[C@H](C)C[C@H]4C)nc2c1C(=O)O` [A23187], the “stimulation of basal APP release by calcium ionophore alone” value in assay [3] (10 μm ionophore, cell line not stated in text (FIG. 1B)) is “failure”.

Source of the values: patent publication US6329155A, “Methods of identifying agents which regulate release of amyloid precursor protein” (Massachusetts Institute of Technology, priority 1994, dated 2001).
